Activity calls are given as the source filed them.
Assays:
Phospholipase A2 = Phospholipase A2 (Homo sapiens, UniProt P04054); assay type: functional;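 note: confirmatory dose-response counterscreen on phospholipase A2, testing hits that came from an ultra-high-throughput screen for ATG4B inhibitors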
Cysteine protease ATG4B = Cysteine protease ATG4B (Homo sapiens, UniProt Q9Y4P1); assay type: functional;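 note: Fluorescence-based dose-response confirmation assay measuring inhibition of ATG4B activity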
[1] = biological target: T1, Carboxy-terminal domain RNA polymerase II polypeptide A small phosphatase 1 (Homo sapiens, UniProt Q9GZU7); assay: CTDSP1 inhibitors, concentration-response, biochemical, absorbance readout, ultra-high-throughput screen actives (AID 540297); assay type: functional
T1 sequence (Q9GZU7 whole entry): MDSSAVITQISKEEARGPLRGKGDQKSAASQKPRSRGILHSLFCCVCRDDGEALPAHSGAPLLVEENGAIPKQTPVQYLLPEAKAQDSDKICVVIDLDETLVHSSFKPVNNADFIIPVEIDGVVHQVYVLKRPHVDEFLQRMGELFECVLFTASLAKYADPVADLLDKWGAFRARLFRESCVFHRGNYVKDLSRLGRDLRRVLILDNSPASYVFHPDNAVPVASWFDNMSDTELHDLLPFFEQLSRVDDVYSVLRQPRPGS

[2] = biological target: DNA (cytosine-5)-methyltransferase 1 (Homo sapiens, UniProt P26358); assay: inhibition of DNA methylation by DNMT1 – biochemical, fluorescent molecular beacon, confirmation (AID 602386); assay type: functional
DNA topoisomerase = DNA topoisomerase (Yersinia pestis, UniProt A0A2S9PM60); assay: Yersinia topoisomerase I cleavage product accumulation – biochemical, cherry-pick, dose response (AID 588525)
[3] = biological target: Low molecular weight phosphotyrosine protein phosphatase (Homo sapiens, UniProt P24666); assay type: functional; details: read-out: IC50_Mean;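 note: Dose-response confirmation assay measuring inhibition of LMPTP enzyme activity by fluorescence intensity read-out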
[4] = Luminescence Cell-Based Dose Retest to Confirm Inhibitors of Cancer Stem Cells. [Related pubchem assays (depositor defined):AID2717, AID2721]; assay type: functional; details: Homo sapiens
[5] = NIH3T3 cell viability loss, ATP content – CellTiter-Glo luminescence, cherry-pick, set 2, cytotoxicity control for HSP40 inhibitor project, dose response (AID 624265); assay type: functional
[6] = biological target: T2, Microphthalmia-associated transcription factor (Homo sapiens, UniProt O75030); assay: reducers of TRPM1 reporter luminescence, concentration series – cell-based, SK-MEL-5, cherry-picked, set 3, MITF inhibitor project, dose response (AID 493073); assay type: functional;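 note: SK-MEL-5 melanoma cells with luciferase driven by the MITF target TRPM1 promoter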
T2 sequence (O75030 whole entry): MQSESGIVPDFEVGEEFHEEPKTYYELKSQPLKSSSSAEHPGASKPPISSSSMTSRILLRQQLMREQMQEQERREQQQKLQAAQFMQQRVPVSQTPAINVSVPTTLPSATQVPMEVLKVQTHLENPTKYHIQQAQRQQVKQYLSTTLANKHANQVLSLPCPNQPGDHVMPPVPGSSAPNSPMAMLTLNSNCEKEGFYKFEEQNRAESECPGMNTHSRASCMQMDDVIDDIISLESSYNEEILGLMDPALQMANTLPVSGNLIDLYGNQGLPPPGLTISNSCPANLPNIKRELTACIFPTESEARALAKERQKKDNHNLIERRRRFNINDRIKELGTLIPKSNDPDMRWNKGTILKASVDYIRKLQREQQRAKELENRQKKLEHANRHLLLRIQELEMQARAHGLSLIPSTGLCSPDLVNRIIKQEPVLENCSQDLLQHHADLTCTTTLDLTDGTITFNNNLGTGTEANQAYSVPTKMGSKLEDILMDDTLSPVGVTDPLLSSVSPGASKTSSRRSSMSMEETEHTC

[7] = biological target: T3, Heat shock factor protein 1 (Mus musculus, UniProt P38532); assay: decrease of HSF1-responsive luciferase luminescence – cell-based, NIH3T3, dose retest, confirmation (AID 2382); assay type: functional;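 note: NIH3T3 fibroblasts with HSF1-driven luciferase reporter stressed by proteasome inhibitor MG132; luminescence from HSF1-driven luciferase expression after 8 hours of MG132 stress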
T3 sequence (P38532 whole entry): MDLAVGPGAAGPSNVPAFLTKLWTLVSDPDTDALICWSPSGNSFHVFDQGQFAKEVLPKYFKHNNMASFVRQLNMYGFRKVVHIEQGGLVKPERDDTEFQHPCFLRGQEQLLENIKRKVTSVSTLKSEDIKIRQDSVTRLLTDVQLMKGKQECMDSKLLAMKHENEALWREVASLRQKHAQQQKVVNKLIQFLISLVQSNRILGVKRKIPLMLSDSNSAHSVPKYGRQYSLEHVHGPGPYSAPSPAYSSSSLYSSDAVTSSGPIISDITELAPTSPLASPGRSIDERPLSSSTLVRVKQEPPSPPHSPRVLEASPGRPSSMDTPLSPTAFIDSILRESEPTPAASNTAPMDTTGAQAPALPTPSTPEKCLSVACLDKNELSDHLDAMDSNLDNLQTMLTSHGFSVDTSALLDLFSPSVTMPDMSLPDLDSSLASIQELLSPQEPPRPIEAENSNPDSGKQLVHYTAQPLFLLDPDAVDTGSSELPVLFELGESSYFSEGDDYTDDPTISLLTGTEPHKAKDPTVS

A-375 [8] = assay: proliferation inhibition in MITF-low A375 cells – cell-based, cherry-pick samples, set 2, counter-screen for MITF modulator project, dose response (AID 540335); assay type: functional; details: Homo sapiens
A-375 [9] = assay: MITF: Counter assay: A375 proliferation Measured in Cell-Based System Using Plate Reader - 2084-03_Inhibitor_Dose_DryPowder_Activity. [Related pubchem assays (depositor defined):AID488944]; assay type: functional; details: Homo sapiens
[10] = biological target: T4, Sentrin-specific protease 1 (Homo sapiens, UniProt Q9P0U3); assay: Dose response confirmation of small molecule inhibitors of the catalytic domain of the SUMO protease, SENP1 in a FRET assay.; assay type: functional; details: read-out: IC50_Mean
Melanocortin receptor 4 = Melanocortin receptor 4 (Homo sapiens, UniProt P32245); assay type: functional, cell-based;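 note: Cell-based assay with luminescence read-out, confirmatory dose-response testing for agonist activity of biased ligands at MC4R; human U2OS cells with tagged receptor and beta-arrestin; potency of agonists that increase receptor coupling to beta-arrestin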
[11] = biological target: T4, Sentrin-specific protease 1; assay: SENP1 catalytic domain blockers, concentration series – biochemical, kinetic FRET, dose response (AID 651697); assay type: functional; details: read-out: IC50_Mean
Protein Wnt-3a = Protein Wnt-3a (Mus musculus, UniProt P27467); assay: antagonism of Wnt3a pathway luciferase reporter – Wnt-LIGHT cells, luminescence, selectivity assay for Gli-SUFU antagonist project, dose response (AID 651570); assay type: functional; details: read-out: IC50_Mean;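 note: Wnt-LIGHT reporter cells stimulated with conditioned medium from Wnt3a-producing cells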
[12] = reduction of Shn3 3'UTR-driven luciferase in osteoblasts – cell-based, Clone20 osteoblasts, firefly luciferase, cherry-picked, dose response (AID 624132); assay type: functional;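 note: firefly luciferase luminescence from reporter carrying the Shn3 3'UTR in osteoblasts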
[13] = loss of viability in HepG2 cells – cell-based, CellTiter-Glo, cherry-picked, cytotoxicity control for Shn3 inhibitor project, dose response (AID 624134); assay type: functional
[14] = non-specific 3'UTR reporter inhibition in Clone20-Shn3RL – cell-based, Renilla luciferase, cherry-picked, counter-screen for Shn3 inhibitor project, dose response (AID 624133); assay type: functional

Sequence of Phospholipase A2 (P04054 whole entry): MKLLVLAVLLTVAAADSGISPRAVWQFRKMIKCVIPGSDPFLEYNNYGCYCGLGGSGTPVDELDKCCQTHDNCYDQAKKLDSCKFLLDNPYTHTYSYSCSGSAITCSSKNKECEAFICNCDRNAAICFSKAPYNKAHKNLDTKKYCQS
Sequence of Cysteine protease ATG4B (Q9Y4P1 whole entry, the tested form may be a part): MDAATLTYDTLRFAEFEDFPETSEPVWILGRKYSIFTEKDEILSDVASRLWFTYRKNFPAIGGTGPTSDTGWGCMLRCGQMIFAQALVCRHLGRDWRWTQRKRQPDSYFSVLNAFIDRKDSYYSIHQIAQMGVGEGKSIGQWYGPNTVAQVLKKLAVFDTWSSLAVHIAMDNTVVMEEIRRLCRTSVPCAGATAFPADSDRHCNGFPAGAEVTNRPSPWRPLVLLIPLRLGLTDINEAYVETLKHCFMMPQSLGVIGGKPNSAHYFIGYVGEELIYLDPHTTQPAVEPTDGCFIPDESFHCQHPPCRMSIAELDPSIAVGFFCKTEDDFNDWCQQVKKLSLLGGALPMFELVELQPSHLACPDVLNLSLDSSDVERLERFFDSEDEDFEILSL
T4 sequence (Q9P0U3 whole entry, the tested form may be a part): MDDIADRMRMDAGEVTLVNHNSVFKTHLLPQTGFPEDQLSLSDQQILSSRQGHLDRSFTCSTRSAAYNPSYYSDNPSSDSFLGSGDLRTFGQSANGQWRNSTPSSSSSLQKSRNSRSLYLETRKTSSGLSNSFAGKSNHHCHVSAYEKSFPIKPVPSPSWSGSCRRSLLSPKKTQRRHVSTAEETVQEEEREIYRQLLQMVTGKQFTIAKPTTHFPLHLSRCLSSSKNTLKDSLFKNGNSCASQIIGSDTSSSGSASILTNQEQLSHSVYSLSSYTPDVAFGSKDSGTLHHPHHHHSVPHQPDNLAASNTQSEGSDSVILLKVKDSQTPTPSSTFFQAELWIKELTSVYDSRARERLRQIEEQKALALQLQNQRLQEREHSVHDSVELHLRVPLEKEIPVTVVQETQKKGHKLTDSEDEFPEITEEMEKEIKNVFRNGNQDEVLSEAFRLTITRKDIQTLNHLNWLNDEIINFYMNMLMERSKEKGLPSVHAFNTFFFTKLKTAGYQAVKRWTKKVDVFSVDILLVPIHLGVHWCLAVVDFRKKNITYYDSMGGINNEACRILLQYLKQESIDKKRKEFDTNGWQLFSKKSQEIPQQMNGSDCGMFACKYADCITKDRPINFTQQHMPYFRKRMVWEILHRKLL
Sequence of DNA (cytosine-5)-methyltransferase 1 (P26358 whole entry): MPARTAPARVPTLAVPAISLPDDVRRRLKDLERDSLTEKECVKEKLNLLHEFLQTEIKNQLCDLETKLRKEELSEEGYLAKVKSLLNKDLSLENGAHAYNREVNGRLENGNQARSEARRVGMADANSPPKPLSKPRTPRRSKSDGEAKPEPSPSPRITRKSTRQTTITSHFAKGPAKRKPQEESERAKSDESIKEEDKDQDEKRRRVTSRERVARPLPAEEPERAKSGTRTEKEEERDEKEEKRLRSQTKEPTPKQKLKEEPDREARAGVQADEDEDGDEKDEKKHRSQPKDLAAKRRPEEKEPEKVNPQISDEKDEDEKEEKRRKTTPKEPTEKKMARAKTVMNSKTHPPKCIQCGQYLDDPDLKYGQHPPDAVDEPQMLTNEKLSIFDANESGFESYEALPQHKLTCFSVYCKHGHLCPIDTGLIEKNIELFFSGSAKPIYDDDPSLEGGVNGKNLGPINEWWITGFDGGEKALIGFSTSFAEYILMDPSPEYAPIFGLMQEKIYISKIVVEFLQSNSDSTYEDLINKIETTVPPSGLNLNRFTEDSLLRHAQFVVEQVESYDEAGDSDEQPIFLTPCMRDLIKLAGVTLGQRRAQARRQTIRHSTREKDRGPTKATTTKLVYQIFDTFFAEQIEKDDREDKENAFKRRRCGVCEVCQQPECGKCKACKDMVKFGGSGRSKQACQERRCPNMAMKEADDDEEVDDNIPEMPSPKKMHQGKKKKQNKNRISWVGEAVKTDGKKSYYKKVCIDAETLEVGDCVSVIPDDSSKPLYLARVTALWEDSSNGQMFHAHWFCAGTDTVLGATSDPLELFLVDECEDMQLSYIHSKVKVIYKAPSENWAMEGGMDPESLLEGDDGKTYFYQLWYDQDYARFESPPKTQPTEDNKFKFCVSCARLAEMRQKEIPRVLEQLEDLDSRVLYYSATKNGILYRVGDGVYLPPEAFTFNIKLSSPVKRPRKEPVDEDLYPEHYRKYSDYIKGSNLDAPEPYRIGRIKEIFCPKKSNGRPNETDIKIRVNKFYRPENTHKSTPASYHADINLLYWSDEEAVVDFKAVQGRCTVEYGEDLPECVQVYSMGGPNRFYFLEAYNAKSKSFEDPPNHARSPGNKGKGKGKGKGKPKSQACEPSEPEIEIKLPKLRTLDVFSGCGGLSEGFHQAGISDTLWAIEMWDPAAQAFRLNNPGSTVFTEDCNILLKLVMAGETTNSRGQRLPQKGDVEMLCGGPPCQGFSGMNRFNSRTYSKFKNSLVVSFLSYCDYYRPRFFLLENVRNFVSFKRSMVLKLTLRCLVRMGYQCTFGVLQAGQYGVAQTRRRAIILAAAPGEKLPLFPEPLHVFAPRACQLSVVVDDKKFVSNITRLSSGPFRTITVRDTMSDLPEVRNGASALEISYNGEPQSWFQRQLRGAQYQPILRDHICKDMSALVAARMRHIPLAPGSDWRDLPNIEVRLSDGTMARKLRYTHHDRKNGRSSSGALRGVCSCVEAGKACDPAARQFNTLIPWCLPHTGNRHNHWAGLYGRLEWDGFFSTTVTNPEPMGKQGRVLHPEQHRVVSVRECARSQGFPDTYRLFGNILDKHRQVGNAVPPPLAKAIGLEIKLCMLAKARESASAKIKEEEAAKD
Sequence of Melanocortin receptor 4 (P32245 whole entry, the tested form may be a part): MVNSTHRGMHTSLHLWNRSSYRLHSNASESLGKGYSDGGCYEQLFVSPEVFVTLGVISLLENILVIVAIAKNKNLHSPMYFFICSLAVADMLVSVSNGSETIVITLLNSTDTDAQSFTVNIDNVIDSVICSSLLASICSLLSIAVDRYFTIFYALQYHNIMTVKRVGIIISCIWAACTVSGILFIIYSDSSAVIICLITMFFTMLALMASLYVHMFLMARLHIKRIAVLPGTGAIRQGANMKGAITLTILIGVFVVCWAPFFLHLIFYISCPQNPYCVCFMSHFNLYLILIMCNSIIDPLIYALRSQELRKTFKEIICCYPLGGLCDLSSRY
Sequence of Low molecular weight phosphotyrosine protein phosphatase (P24666 whole entry): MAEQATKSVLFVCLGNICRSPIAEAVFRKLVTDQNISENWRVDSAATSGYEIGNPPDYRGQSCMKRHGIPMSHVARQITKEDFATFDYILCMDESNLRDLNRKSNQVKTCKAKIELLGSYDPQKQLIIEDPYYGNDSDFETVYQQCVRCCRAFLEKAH
Sequence of Protein Wnt-3a (P27467 whole entry): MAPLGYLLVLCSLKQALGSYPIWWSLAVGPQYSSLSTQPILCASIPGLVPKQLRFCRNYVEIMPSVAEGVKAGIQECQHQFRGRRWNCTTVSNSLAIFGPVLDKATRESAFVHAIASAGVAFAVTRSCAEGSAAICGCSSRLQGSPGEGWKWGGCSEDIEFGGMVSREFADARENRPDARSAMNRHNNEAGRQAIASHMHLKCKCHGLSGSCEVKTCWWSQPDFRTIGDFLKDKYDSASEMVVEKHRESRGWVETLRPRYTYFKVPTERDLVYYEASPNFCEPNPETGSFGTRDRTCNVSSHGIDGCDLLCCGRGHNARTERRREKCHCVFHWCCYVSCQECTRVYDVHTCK
Sequence of DNA topoisomerase (A0A2S9PM60 whole entry): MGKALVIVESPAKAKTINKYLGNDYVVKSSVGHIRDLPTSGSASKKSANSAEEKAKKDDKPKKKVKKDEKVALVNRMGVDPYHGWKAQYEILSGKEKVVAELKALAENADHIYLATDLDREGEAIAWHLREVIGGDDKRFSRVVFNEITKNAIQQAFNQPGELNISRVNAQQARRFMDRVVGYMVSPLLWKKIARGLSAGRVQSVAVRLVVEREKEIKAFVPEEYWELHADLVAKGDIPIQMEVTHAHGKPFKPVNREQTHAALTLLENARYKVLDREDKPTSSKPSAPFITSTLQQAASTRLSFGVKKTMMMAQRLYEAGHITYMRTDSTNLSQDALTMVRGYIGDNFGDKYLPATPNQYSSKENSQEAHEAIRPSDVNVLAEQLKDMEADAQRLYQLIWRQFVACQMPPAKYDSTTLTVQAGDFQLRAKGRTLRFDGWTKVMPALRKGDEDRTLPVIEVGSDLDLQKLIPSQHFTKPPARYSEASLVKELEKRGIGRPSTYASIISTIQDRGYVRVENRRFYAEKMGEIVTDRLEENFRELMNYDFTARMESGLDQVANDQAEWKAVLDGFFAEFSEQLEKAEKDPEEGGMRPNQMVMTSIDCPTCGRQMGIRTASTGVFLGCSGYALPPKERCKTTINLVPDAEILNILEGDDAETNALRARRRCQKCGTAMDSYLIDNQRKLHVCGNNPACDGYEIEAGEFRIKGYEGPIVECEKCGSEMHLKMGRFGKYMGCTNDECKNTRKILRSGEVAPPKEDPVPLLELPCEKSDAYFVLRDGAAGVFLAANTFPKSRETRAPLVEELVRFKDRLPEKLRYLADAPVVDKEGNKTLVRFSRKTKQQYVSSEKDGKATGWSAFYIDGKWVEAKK

With `COc1ccc(OC)c(-c2cc(C(=O)N3CCCc4ccccc43)no2)c1` the IC50 (Phospholipase A2) was 14.8 µM (active) and the IC50 (Cysteine protease ATG4B) was 20.1 µM (inactive).
For `Cc1ccc(C(=O)NN2CC(=O)C(c3nc(-c4cccc([N+](=O)[O-])c4)cs3)=C2N)cc1`, the IC50 [1] was 4.06 µM (active) and the IC50 [2] was > 99 µM (inactive).
With `Oc1nnc(Cc2ccc(-c3ccc(Cl)cc3)o2)c2ccccc12` the AC50 (DNA topoisomerase) was 9.08 µM (active).
In the case of `O=C(COc1ccc2c(-c3ccccc3)cc(=O)oc2c1)Nc1ccc(CCO)cc1`, the IC50 [3] is reported as 40.7 µM (inactive).
For `COc1ccc(-c2oc3ccccc3c2C#Cc2cncn2C)cc1`, the AC50 [4] was 2.05 µM (active) and the AbsAC35_uM [5] was 54.48 µM.
In the case of `C=CCNC1=NN=C(c2ccc3c(c2)OCCO3)CS1`, the AC50 [6] is reported as 3.37 µM (active), the EC50 [7] is reported as 5.84 µM (active) and the AC50 (A-375 [8]) is reported as 48.9 µM (active).
With `S=C(NCc1ccccc1)Nc1cccc(Cl)c1` the IC50 (Phospholipase A2) was 8.8 µM (active) and the IC50 (Cysteine protease ATG4B) was 13.3 µM (active).
For `O=[N+]([O-])c1ccc(S(=O)(=O)CC(CN2CCCCC2)N2CCCCC2)cc1` (stereo not drawn), the AC50 [6] was 4.88 µM (active), the AC50 [4] was 2.17 µM (active) and the AC50 (A-375 [9]) was 19.9 µM (active).
In the case of `COc1ccc(-c2ccc3c(c2)S(=O)(=O)c2cccc(C(=O)NCc4cc(C)oc4C(F)(F)F)c2C3=O)cc1OC`, the IC50 [10] is reported as 13.3 µM (active), the EC50 (Melanocortin receptor 4) is reported as > 89.2 µM (inactive) and the IC50 [11] is reported as 15.8 µM (active).
In the case of `CN(Cc1ccc(OC(F)F)cc1)C(=O)c1cccc(S(=O)(=O)N2CCN(Cc3ccccc3)CC2)c1`, the IC50 (Protein Wnt-3a) is reported as 6.19 µM (active), the AC50 [12] is reported as 2.37 µM (active) and the AC50 [13] is reported as 57.2 µM (active). For the same compound, the AC50 [14] was 2.94 µM (active).

— ChEMBL document CHEMBL1201862, “PubChem BioAssay data set” (2004)
